Results from US20110318798A1, “REMOVAL OF INHIBITORS OF MICROBIAL FE[…] INHIBITOR-CONTAINING COMPOSITIONS” (priority 2010, published 2011).

Key:
[1] = tested on: Clostridium; conditions: in the fermentation medium
[2] = tested on: butanol-producing Clostridium strain; format: cell-based

Compound	concentration at which it becomes inhibitory to growth of Clostridium and subsequent production of butanol [1]	transformation of un-fermentable hydrolysate into fermentable feedstock supporting microbial growth and butanol production ([2]; 2 g/L to 5 g/L metal salt, pH 9 to 10.5, 20° C. to 40° C.)	butanol concentration after microbial fermentation for 72 hours ([2]; hydrolysate treated with 3 g/L […] or 2 g/l ferric chloride, pH 9.5, room temperature (about 20° C.), fermentation 10 ml, 30° C.)
O=CO [Formic acid]	0.3 to 0.4 g/L		
[Cl][Fe]([Cl])[Cl] [ferric chloride]		successful	7.69 g/L
